This data set is described as follows: Dissolution of AMP alone in organic solvent. The data set is classed as physicochemical.
Description: (§1) […] […] 1 eq. of a phosphorylated nucleotide such as adefovir can be substituted for each eq. of AMP.
as §1

SMILES strings stand for the structures.

For `Nc1ncnc2c1ncn2[C@@H]1O[C@H](COP(=O)(O)O)[C@@H](O)[C@H]1O` [AMP, Adenosine monophosphate], the “Dissolution of AMP alone in N-methyl pyrrolidone” value (0.5 g in 10 mL of N-methyl pyrrolidone, absence of tyrosine butyrate) is on record as “will not dissolve”. In addition, the “Dissolution of AMP alone in glycerol formal” value (1 g in 10 mL of glycerol formal, absence of isoleucine butyrate) is “will not dissolve”.

These data come from patent US8293253B2, “Compositions for controlled delivery of pharmaceutically active compounds” (IDEXX Laboratories, Inc., priority 2004, dated 2012).
